Laboratory results reported in patent US20240150424A1, “DIRECTED CHEMICAL CONJUGATE OF GLUCAGON-LIKE PEPTIDE-2 MUTANT, AND USE THEREOF” (PEG-BIO BIOPHARM CO.,LTD.(CHONGQING), priority 2021, published 2024).
Starred links: 1 amine or outer side, 2 acyl side, 3 side chain; linkers in the order of their positions; H or OH if unused. Non-standard residues stand in square brackets, D forms with d. Residues, ends and D or L forms follow the SMILES beside them. Groups on a side chain read outwards from the residue. No end group written: not given here. *: point of attachment. C18 diacid = O=C(O)CCCCCCCCCCCCCCCCC(=O)*; γGlu = O=C(O)[C@H](CCC(=O)[*:2])N[*:1]; AEEA = NCCOCCOCC(=O)O; Aib = CC(C)(N)C(=O)O

Assays:
GLP-2R = target: T1, GLP-2R (Homo sapiens, UniProt O95838); test: In vitro activity (cAMP) assay of glucagon-like peptide-2 mutants in HEK-293-GLP-2R cells; type: cell-based; details: for in vitro activities compared with natural human glucagon-like peptide-2: summary statement
T1 construct: expressed in transfected cells; host or cells: HEK-293 cells, transfected and screened by Chongqing Paijin Biotechnology Co. Ltd. The receptor gene was constructed by Shanghai Shengbo Biomedical Technology Co. Ltd
T1 sequence (O95838 1-553): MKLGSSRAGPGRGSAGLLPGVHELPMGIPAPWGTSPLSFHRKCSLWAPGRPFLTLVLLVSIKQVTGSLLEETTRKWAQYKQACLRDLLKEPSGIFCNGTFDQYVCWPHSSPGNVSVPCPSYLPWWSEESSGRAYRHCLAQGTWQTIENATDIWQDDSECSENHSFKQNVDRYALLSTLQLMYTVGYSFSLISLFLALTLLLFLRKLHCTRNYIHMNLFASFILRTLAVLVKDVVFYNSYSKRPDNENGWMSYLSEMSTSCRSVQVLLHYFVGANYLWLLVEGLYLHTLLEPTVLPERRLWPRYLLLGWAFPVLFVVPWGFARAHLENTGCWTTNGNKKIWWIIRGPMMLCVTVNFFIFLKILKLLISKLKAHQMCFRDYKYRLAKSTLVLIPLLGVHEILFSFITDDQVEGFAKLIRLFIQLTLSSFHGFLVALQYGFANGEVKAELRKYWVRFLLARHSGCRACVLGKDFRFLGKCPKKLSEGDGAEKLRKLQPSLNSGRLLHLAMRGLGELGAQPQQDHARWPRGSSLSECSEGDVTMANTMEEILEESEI
Protocol: HEK-293-GLP-2R cells (HEK-293 cells were purchased from National Collection of Authenticated Cell Cultures, GLP-2R receptor gene sequence was recombinantly constructed by Shanghai Shengbo Biomedical Technology Co. Ltd., and HEK-293-GLP-2R cells were obtained by transfection and screening by Chongqing Paijin Biotechnology Co. Ltd.) were used to determine the in vitro activities of glucagon-like peptide-2 mutants. […] The cells were incubated at 37° C., 5% CO2 for 15 minutes, and then added with a cell lysis buffer. The cell lysates were extracted, and the OD value of cAMP was determined using a cAMP assay kit (RD company).

[1] = Pharmacokinetic study in rats (ELISA); type: in vivo, SD rats
Protocol: 10 adult SD rats weighing 200-300 g were equally divided into 2 groups, 5 rats each group. PF01 and PF04 were administered subcutaneously at a single dose of 3 mg/Kg, respectively. Serum samples of all rats were collected before administration and 8 h, 24 h, 48 h, 72 h and 96 h after administration, and plasma concentrations were determined by ELISA.

[2] = Pharmacokinetic study in Cynomolgus macaques (LC-MS/MS, NCA); type: in vivo
Protocol: 4 adult Cynomolgus macaques, half males and half females, were used. PF01 was administered by subcutaneous injection at a single dose of 0.05 mg/Kg. Blood samples were collected before administration and 4 h, 8 h, 12 h, 24 h, 48 h, 72 h, 96 h, 120 h, 192 h and 288 h after administration. The concentrations of PF01 in the samples were determined by LC-MS/MS. The plasma concentration data were analyzed using WinNonlin, a pharmacokinetic data analysis software. […] The t1/2, Cmax, Tmax, AUC, Cl and Vd were calculated using a non-compartmental model (NCA).

[3] = cited from earlier work
[4] = test system: 5-FU-induced diarrhea and intestinal mucosa injury model; test: Diarrhea and intestinal mucosa injury model caused by 5-FU in rats; type: in vivo, SD rats; details: for Number of animals with diarrhea (denominator): 10 rats each group
Protocol: Forty adult SD rats weighing 200 to 300 g were equally divided into 4 groups, 10 rats each group. A Model group was subcutaneously administered with the placebo once a day for 9 days, a Ted group was subcutaneously administered at 1 mg/Kg once a day for 9 days, and a PF01 group and a PF04 group were subcutaneously administered at 3 mg/Kg once every three days for a total of 3 times. All rats were intraperitoneally injected with 5-FU at 50 mg/Kg once a day on the 4th day to the 6th day. Diarrhea and body weight changes in rats were recorded every day after the first administration of 5-FU. On the 10th day, body weight was weighed, blood was collected, and jejunum was taken for case sections. Diarrhea was identified based on scores, with 0 indicating no diarrhea, 1 indicating mild diarrhea with feces adhering to the anus, 2 indicating moderate diarrhea with feces adhering to the hind legs and tail, 3 indicating severe diarrhea with feces adhering to the front legs and abdomen, and 4 indicating death. In Table 6, the numerator represents the diarrhea score, and the denominator represents the number of animals with diarrhea.

[5] = test system: small intestine hyperplasia in minor mice; test: Test on promoting small intestinal hyperplasia in minor Kunming mice; type: in vivo
Protocol: Forty minor Kunming mice weighing 10 to 20 g were equally divided into […], 10 mice each group. The control group was subcutaneously administered with the placebo once a day for 9 days, the Ted group was subcutaneously administered at 1 mg/Kg once a day for 9 days, and the PF01 group and the PF04 group were subcutaneously administered at 3 mg/Kg once every three days for a total of 3 times. All experimental animals were weighed before administration. On the 10th day after administration, the body weight was weighed, blood was collected, and small intestine length and weight were determined.

[6] = cited from earlier work; remark: listed apart in the source
[7] = cynomolgus monkey, in vivo, Cynomolgus macaques, sc single dose of 0.05 mg/Kg
[8] = 24 h after the administration of 5-FU
[9] = 48 h after the administration of 5-FU
[10] = 72 h after the administration of 5-FU
[11] = 96 h after the administration of 5-FU
[12] = 10th day, Ted 1 mg/Kg sc once a day for 9 days, PF01/PF04 3 mg/Kg sc once every three days, 3 times

PT02: glucagon-like peptide-2 mutant, SEQ ID NO: 2: HAibDGSFSDEMNTILDNLAARDFINWLIQTRITDGGGGSK (H[Aib]DGSFSDEMNTILDNLAARDFINWLIQTRITDGGGGSK)
in vitro activities compared with natural human glucagon-like peptide-2 (GLP-2R): consistent with the natural human glucagon-like peptide-2 | in vitro cell viability relative to that of Teduglutide (GLP-2R; text summary of Table 3, Teduglutide as a standard): comparable to that of Teduglutide

PT01: glucagon-like peptide-2 mutant, SEQ ID NO: 1: HGDGSFSDEMNTILDNLAARDFINWLIQTRITDGGGGSK
in vitro activities compared with natural human glucagon-like peptide-2 (GLP-2R): consistent with the natural human glucagon-like peptide-2

CC[C@H](C)[C@H](NC(=O)[C@H](Cc1ccccc1)NC(=O)[C@H](CC(=O)O)NC(=O)[C@H](CCCNC(=N)N)NC(=O)[C@H](C)NC(=O)[C@H](C)NC(=O)[C@H](CC(C)C)NC(=O)[C@H](CC(N)=O)NC(=O)[C@H](CC(=O)O)NC(=O)[C@H](CC(C)C)NC(=O)[C@@H](NC(=O)[C@@H](NC(=O)[C@H](CC(N)=O)NC(=O)[C@H](CCSC)NC(=O)[C@H](CCC(=O)O)NC(=O)[C@H](CC(=O)O)NC(=O)[C@H](CO)NC(=O)[C@H](Cc1ccccc1)NC(=O)[C@H](CO)NC(=O)CNC(=O)[C@H](CC(=O)O)NC(=O)CNC(=O)[C@@H](N)Cc1c[nH]cn1)[C@@H](C)O)[C@@H](C)CC)C(=O)N[C@@H](CC(N)=O)C(=O)N[C@@H](Cc1c[nH]c2ccccc12)C(=O)N[C@@H](CC(C)C)C(=O)N[C@H](C(=O)N[C@@H](CCC(N)=O)C(=O)N[C@H](C(=O)N[C@@H](CCCNC(=N)N)C(=O)N[C@H](C(=O)N[C@H](C(=O)N[C@@H](CC(=O)O)C(=O)NCC(=O)NCC(=O)NCC(=O)NCC(=O)N[C@@H](CO)C(=O)N[C@@H](CCCCNC(=O)COCCOCCNC(=O)COCCOCCNC(=O)CC[C@H](NC(=O)CCCCCCCCCCCCCCCCC(=O)O)C(=O)O)C(=O)O)[C@@H](C)O)[C@@H](C)CC)[C@@H](C)O)[C@@H](C)CC [PF01] (H-HGDGSFSDEMNTILDNLAARDFINWLIQTRITDGGGGSK([AEEA-AEEA-γGlu-C18 diacid])-OH)
Cmax ([1]; rat, in vivo, rats, sc single dose of 3 mg/Kg): 67500 ng/mL | half-life ([1]; rat, in vivo, rats, sc single dose of 3 mg/Kg, read-out: T1/2 (converted)): 20.3 h | half-life ([1]; rat, in vivo, summary statement in description, read-out: in vivo half-life in rats (converted)): 21 h | Tmax ([1]; rats, sc single dose of 3 mg/Kg): basically consistent with that of PF04 | in vivo half-life, times longer than that of the natural hGLP-2 ([2]; based on T1/2 in Cynomolgus macaques): approximately 100 times | AUC [2, 7]: 21700 ng·h/mL | Cmax [2, 7]: 459 ng/mL | Tmax [2, 7]: 12 h | half-life ([2]; cynomolgus monkey, in vivo, Cynomolgus macaques, sc single dose of 0.05 mg/Kg, read-out: T1/2 (average) (converted)): 30.9 h | half-life ([2]; cynomolgus monkey, in vivo, summary statement in description, read-out: in vivo half-life in cynomolgus monkeys (converted)): 30 h

PT03: glucagon-like peptide-2 mutant, SEQ ID NO: 3: HGDGSFSDEMNTILDNLAARDFINWLIQTRITDGGGGSGGGGSK
in vitro activities compared with natural human glucagon-like peptide-2 (GLP-2R): consistent with the natural human glucagon-like peptide-2

GLP-2(3-33): hydrolyzed, inactive GLP-2(3-33) formed by dipeptidyl peptidase IV (DGSFSDEMNTILDNLAARDFINWLIQTKITD; Glucagon-like peptide 2; UniProt P01275 148-178, looked up, fragment)
half-life in vivo ([3]; cited reference on catabolism in rats): 0.45 h

CC[C@H](C)[C@H](NC(=O)[C@H](Cc1ccccc1)NC(=O)[C@H](CC(=O)O)NC(=O)[C@H](CCCNC(=N)N)NC(=O)[C@H](C)NC(=O)[C@H](C)NC(=O)[C@H](CC(C)C)NC(=O)[C@H](CC(N)=O)NC(=O)[C@H](CC(=O)O)NC(=O)[C@H](CC(C)C)NC(=O)[C@@H](NC(=O)[C@@H](NC(=O)[C@H](CC(N)=O)NC(=O)[C@H](CCSC)NC(=O)[C@H](CCC(=O)O)NC(=O)[C@H](CC(=O)O)NC(=O)[C@H](CO)NC(=O)[C@H](Cc1ccccc1)NC(=O)[C@H](CO)NC(=O)CNC(=O)[C@H](CC(=O)O)NC(=O)CNC(=O)[C@@H](N)Cc1c[nH]cn1)[C@@H](C)O)[C@@H](C)CC)C(=O)N[C@@H](CC(N)=O)C(=O)N[C@@H](Cc1c[nH]c2ccccc12)C(=O)N[C@@H](CC(C)C)C(=O)N[C@H](C(=O)N[C@@H](CCC(N)=O)C(=O)N[C@H](C(=O)N[C@@H](CCCCN)C(=O)N[C@H](C(=O)N[C@H](C(=O)N[C@@H](CC(=O)O)C(=O)O)[C@@H](C)O)[C@@H](C)CC)[C@@H](C)O)[C@@H](C)CC [Teduglutide]
Diarrhea score (numerator) [4, 8]: 0/0 | Number of animals with diarrhea (denominator) [4, 8]: 0/0 | Diarrhea score (numerator) [4, 9]: 4/4 | Number of animals with diarrhea (denominator) [4, 9]: 4/4 | Diarrhea score (numerator) [4, 10]: 4 | Number of animals with diarrhea (denominator) [4, 10]: 3 | Diarrhea score (numerator) [4, 11]: 3/3 | Number of animals with diarrhea (denominator) [4, 11]: 3/3 | Rank of citrulline (CIT) content between groups ([4]; FIG. 7, before chemotherapy, 48 h and 144 h after chemotherapy): citrulline content in the PF01 group>that in the PF04 group>that in the Ted group>that in the Model group | Case sections of jejunum: height of villi and number of crypt cells, rank of groups ([4]; FIG. 8, 10th day): the PF01 group>the PF04 group>the Ted group>the control group | Serum citrulline content 96 h after the first administration of 5-FU ([4]; Table 5, 96 h): 16.50 µg/mL | Serum citrulline content 48 h after the administration of 5-FU ([4]; Table 7, 48 h): 2.04 µg/mL | Serum citrulline content 96 h after the administration of 5-FU ([4]; Table 7, 96 h): 3.53 µg/mL | Serum citrulline content 144 h after the administration of 5-FU ([4]; Table 7, 144 h): 10.37 µg/mL | Serum citrulline content before the administration of 5-FU ([4]; Table 7, before 5-FU): 21.74 µg/mL | Body weight before the first administration of 5-FU ([4]; Ted 1 mg/Kg sc daily 9 days, PF01/PF04 3 mg/Kg sc every three days x3, 5-FU 50 mg/Kg ip day 4-6): 272.46 g | Body weight 24 h after the first administration of 5-FU ([4]; same regimen, 24 h): 274.36 g | Body weight 48 h after the first administration of 5-FU ([4]; same regimen, 48 h): 257.94 g | Body weight 72 h after the first administration of 5-FU ([4]; same regimen, 72 h): 260.95 g | Body weight 96 h after the first administration of 5-FU ([4]; same regimen, 96 h): 275.43 g | Body weight of mice at the end of the experiment [5, 12]: 18.06 ± 0.49 g | Serum citrulline content [5, 12]: 14.47 µg/mL | Small intestine length [5, 12]: 37.4 cm | Small intestine weight [5, 12]: 1.75 g | Body weight of mice before administration ([5]; baseline, before administration): 13.32 ± 0.49 g | Comparison of groups in mice body weight, serum citrulline, small intestine length and small intestine weight ([5]; text summary of Table 4): superior to the control group | half-life in vivo in humans [6]: 2 h | in vivo half-life in rats ([3]; rats): 0.5 h

hGLP-2: human glucagon-like peptide-2, SEQ ID NO: 9: HADGSFSDEMNTILDNLAARDFINWLIQTKITD
half-life in vivo in humans [6]: 0.12 h

PT04: glucagon-like peptide-2 mutant, SEQ ID NO: 4: HGDGSFSDEMNTILDNLAARDFINWLIQTHITDGGGGSK
in vitro activities compared with natural human glucagon-like peptide-2 (GLP-2R): consistent with the natural human glucagon-like peptide-2
